Laboratory results from publication PMC8153426, “EfgA is a conserved formaldehyde sensor that leads to bacterial growth arrest in response to elevated formaldehyde” (PLoS Biology, 2021).

Legend:
[1] = target: T1, EfgA (Methylorubrum extorquens, UniProt P0DX96); assay: microscale thermophoresis (Kd), confirmed by mITC; format: binding
T1 construct: recombinant EfgA with C-terminal 6X-His tag
T1 sequence (P0DX96 1-144): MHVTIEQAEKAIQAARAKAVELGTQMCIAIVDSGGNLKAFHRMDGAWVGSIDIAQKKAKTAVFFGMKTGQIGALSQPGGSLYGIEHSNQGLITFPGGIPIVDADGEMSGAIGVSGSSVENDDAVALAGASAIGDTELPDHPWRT
Source text: microscale thermophoresis (Kd), confirmed by mITC on EfgA | MST was used to both independently confirm the interaction of EfgA with formaldehyde and permit calculation of its affinity

[2] = target: T2, EfgA (Methylorubrum extorquens, UniProt P0DX96); assay: X-ray crystal structure of formaldehyde-soaked crystals, […] Å; format: binding
T2 construct: N-terminal His-tagged EfgA, homotetramer

[3] = target: the molecule itself; assay: crystal structure; apo EfgA crystals (0.2 M potassium fluoride, 2.2 M ammonium sulfate, 10°C) and crystals with 16.6 mM formaldehyde (0.2 M KNO3, 2.2 M ammonium sulfate, 10°C); 4 molecules per asymmetric unit

Molecule: C=O [formaldehyde]
- Kd [1]: 8.01 ± 3.5 mM

Molecule: OCOCO [oxydimethanol]
- X-ray crystal structure of formaldehyde-soaked crystals, 1.83 Å [2]: In three EfgA monomers, new densities were modeled as oxydimethanol

B1: EfgA (Mext_4158, DUF336 protein) from Methylorubrum extorquens PA1, N-terminal His-tagged derivative (natural protein)
chain: T1 sequence (P0DX96 1-144)
notes: EfgA, product of Mext_4158 of Methylorubrum extorquens PA1; single-domain 144 amino acid protein with a DUF336 domain; Residue numbers S114, D121, K57 are said to correspond to the native EfgA protein; The simulations count 134 EfgA residues in the structure against 144 in the gene product; also called EfgA^WT; enhanced formaldehyde growth protein A; not shown: His6 (thrombin cleavable), …
- stoichiometry N [3]: 4
